Data: patent publication US7700587B2, “Haloperidol analogs” (Florida A&M University, priority 2004, dated 2010)

Assays:
Swiss male mice = assay: Apomorphine induced climbing-stereotypy; format: in vivo; details: for inhibition of apomorphine induced climbing (dopamine receptor antagonist in vivo): intraperitoneal, apomorphine challenge
Male SD rats = assay: Bar test for catalepsy; format: in vivo; details: for statistical comparison of effects in catalepsy bar test (t-test, p<0.05): all four doses; for catalepsy (EPS) in bar test: subcutaneous, at the doses used
Procedure: Bar test for catalepsy: A modified bar test by Needham et al, supra was used. […] Catalepsy severity was assessed immediately at various time points (15, 30, 45, 60, and 90 min) post injection, by scoring how long the rat maintained both forepaws motionless on a horizontal metal bar (1.1 cm in diameter, 10 cm above the bench top in a box). A score of 1 was given for every 5 seconds (2 min. maximum) the animal remained on the bar. Mean scores from 5 animals per time point were recorded for catalepsy and plotted in FIG. 2.
Statistical analysis: The student t-test was used to compare the three compounds used in the animal behavioral tests. Results were considered significant at p<0.05.

Compound	inhibition of apomorphine induced climbing (dopamine receptor antagonist in vivo) (Swiss male mice)	statistical comparison of effects in climbing test (t-test, p<0.05) (Swiss male mice; all four doses)	inhibition of apomorphine induced climbing (dopamine receptor antagonist in vivo) (Swiss male mice; listed as 2)	inhibition of apomorphine induced climbing (dopamine receptor antagonist in vivo) (Swiss male mice; listed as drawing 7)	statistical comparison of effects in catalepsy bar test (t-test, p<0.05) (Male SD rats)	statistical comparison of effects in catalepsy bar test (t-test, p<0.05) (Male SD rats; listed as the analog)	catalepsy (EPS) in bar test (Male SD rats; listed as 2)	catalepsy (EPS) in bar test (Male SD rats; listed as drawing 7)
8-chloro-1-(4-methyl-1-piperazinyl)-5H-dibenzo[b,e]-[1,4]-diazepine [Clozapine (3), reference compound]	acting as a dopamine receptor antagonist							
O=C(CCCN1CCC(O)(c2ccc(Cl)cc2)C1)c1ccc(F)cc1 (racemic) [Analog [A] (2), 4-[3-hydroxy-3-(4′-chlorophenyl)pyrrolidinyl]-4″-fluorobutyrophenone]		significantly different from compound 1 but non significantly different from compound 3	could inhibit apormophine induced climbing in mice	act as antidopaminergics in vivo	statistically similar to clozapine's	significantly different from compound 1 but non significantly different from compound 3	no catalepsy	much less severe EPS (manifested as catalepsy in animal models) than haloperidol
O=C(CCCN1CCC(O)(c2ccc(Cl)cc2)CC1)c1ccc(F)cc1 [Haloperidol (1), 4-[4-(4-chlorophenyl)-4-hydroxy-1-piperidinyl]-1-(4-fluorophenyl)-1-butanone, reference compound]	acting as a dopamine receptor antagonist							
